Source: publication PMC10302582, “Unveiling the Potential of BenzylethyleneAryl–Urea Scaffolds for the Design of New Onco Immunomodulating Agents” (Pharmaceuticals, 2023)
pIC50: −log10 of the molar value.

Legend:
PD-L1 = target: T1, PD-L1 (Homo sapiens, UniProt Q9NZQ7); test: PD-L1 relative quantification by flow cytometry in HT-29 cells; assay type: cell-based; settings: for inhibition rate of PD-L1: HT-29, total PD-L1, dose not stated; for total PD-L1 (%) expression: HT-29 cells, 24 h, relative to DMSO control = 100
T1 construct: assess the effect of our new ureas on these two proteins only on the HT-29 cancer cell line through the use of flow cytometry; endogenous in cells; host or cells: HT-29
T1 sequence (Q9NZQ7 19-290): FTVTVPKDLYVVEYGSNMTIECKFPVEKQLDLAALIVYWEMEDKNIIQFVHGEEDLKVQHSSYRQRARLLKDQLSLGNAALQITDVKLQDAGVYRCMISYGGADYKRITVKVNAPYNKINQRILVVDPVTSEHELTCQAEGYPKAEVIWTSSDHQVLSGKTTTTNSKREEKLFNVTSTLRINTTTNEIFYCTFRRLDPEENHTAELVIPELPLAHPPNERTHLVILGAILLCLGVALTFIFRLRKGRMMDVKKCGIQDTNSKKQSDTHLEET
Protocol: The cells were incubated for a period of time of one day with doses of each of the selected compounds at two different doses: 20 and 100 µM concentrations.
The effects of the compounds on the target in the cancer cell lines compounds were tested using 20 and 100 µM doses. For that, 10^5 cells per well were seeded on a 12-well plate for 24 h with the corresponding dose of the tested compound in a total volume of 500 μL of cell media. To determine the total PD-L1 and VEGFR-2, the cells were collected and fixed with 4% in a PBS of formaldehyde. After this, a treatment with 0.5% in PBS Triton^TM X-100 permeabilized the membranes. Finally, the cells were treated with FITC Mouse monoclonal Anti-Human VEGFR-2 (ab184903) and Alexa Fluor® 647 Rabbit monoclonal Anti-PD-L1 (ab215251).
To determine surface PD-L1 and VEGFR-2, the assay used was similar to the above but avoided the permeabilization step (Triton^TM X-100).

[1] = tested on: THP-1 cells co-cultured with HT-29; test: Immune cell proliferation in co-cultures of HT-29/THP-1; assay type: cell-based, human; settings: 100 μM
Protocol: We also determined the effect of the selected compounds on the human monocyte cells THP-1 in the described co-cultures (see Table 6).
To determine the action of the compounds on cancer cell proliferation in co-culture with immune cells, 10^5 or 2 × 10^5 of the HT-29 cells line were seeded in each well of 12-well plates and left at 37 °C for 24 h. Then, the cancer cells were treated with IFN-γ (10 ng/mL; human, Invitrogen®, Waltham, MA, USA) containing 5 × 10^5 or 10^5, respectively, of THP-1 cells per well and the corresponding compound at 100 μM or DMSO for the positive control. After 24 h/48 h of incubation, the supernatants were collected to establish the alive THP-1 cells using FSC and SCC flow cytometry. In addition, cancer cells were collected with trypsin, fixed with 4% in PBS paraformaldehyde and counted using flow cytometry.

Jurkat T-cells = test: MTT cell proliferation assay, Jurkat T-cells; assay type: cell-based; settings: Homo sapiens, Jurkat, 48 h treatment
Protocol: The action on cell proliferation caused by our developed compounds was studied using an MTT assay using the human tumor cell lines of HT-29 (colon adenocarcinoma) and A-549 (pulmonary adenocarcinoma), as well as toward the non-tumor cell line HEK-293 (human embryonic kidney cells), Jurkat T-cells and human microvessel endothelial cells (HMEC-1).
In general, 5 × 10^3 (HT-29, A549, HMEC-1, Jurkat and HEK-293) cells per well were seeded in 96-well plates with 1:1 dilutions of the compounds in a volume of 100 μL of the cell media. The 3-(4,5-dimethylthiazol-2-yl)-2,5-diphenyltetrazolium bromide (MTT; Sigma Chemical Co.) dye exclusion assay was performed, and after 48 h (37 °C, 5% CO2 in a humid atmosphere), 10 μL of MTT (5 mg/mL in phosphate-buffered saline, PBS) was added to each well and incubated for 3 h at 37 °C. After the supernatant was discarded, we solved the formazan crystal in 100 µL of DMSO. The absorbance was then registered at 550 nm using a plate lector. For all concentrations of any compound, cell viability was expressed as the percentage of the ratio between the mean absorbance of the treated cells and the mean absorbance of the untreated cells. Three to five experiments were performed to establish the IC50 values (i.e., concentration half inhibiting cell proliferation, we used GraphPad Prism 7 software).

CD80 = CD80 detection on membrane of co-cultured THP-1; assay type: cell-based, human; settings: 1:5 HT-29/THP-1; 24 h; relative to non-treated co-cultured THP-1
Excerpt: Reducing the expression of CD11b has become a promising target for immune modulation in anticancer therapies. For that reason, we decided to study the effect of our compounds on CD11b in THP-1 cells co-cultured with HT-29. We also determined the relative amount of CD80, a common surface marker for monocytes.
The results are related to non-treated THP-1 cells when they were co-cultured with HT-29.
The action of the compounds on CDs in co-cultured THP-1 immune cells with cancer cell line HT-29 was tested by treating them with the compounds for 24 h/48 h (see Section 4.2.5). Surface CD11b and CD80 was determined by collecting THP-1 with trypsin, fixing with formaldehyde and staining with FITC Mouse monoclonal Anti-Human CD80 (Sigma-Aldrich SAB4700142) and Alexa Fluor® 647 Rabbit monoclonal Anti-CD11b (Merck #MABF366, Rahway, NJ, USA).

| inhibition rate of PD-L1 (PD-L1) | total PD-L1 (%) expression (PD-L1; 20 μM) [%] | total PD-L1 (%) expression (PD-L1; 100 μM) [%] | melting point [°C] | pIC50 (Jurkat T-cells; 48 h) | Structure (SMILES) | THP-1 cell proliferation in co-culture ([1]; 1:5 HT-29/THP-1, 24 h) | THP-1 cell proliferation in co-culture ([1]; 1:5 HT-29/THP-1, 48 h) | THP-1 cell proliferation in co-culture ([1]; 2:1 HT-29/THP-1, 24 h) | THP-1 cell proliferation in co-culture ([1]; 2:1 HT-29/THP-1, 48 h) | pIC50 (Jurkat T-cells) | % CD80 expression in membrane of THP-1 (CD80) [%] |
| --- | --- | --- | --- | --- | --- | --- | --- | --- | --- | --- | --- |
| 30% | 70 ± 4 | 222 ± 69 | 181 to 183 | < 4.00 | COc1ccc(CCCc2cccc(NC(=O)Nc3ccc(F)cc3)c2)cc1 [C.3] | 87 ± 8 | 78 ± 5 | 113 ± 26 | 91 ± 18 | – | 93 ± 2 |
| around 75% | 25 ± 5 | 96 ± 1 | 181 to 183 | < 4.00 | COc1ccc(CCCc2cccc(NC(=O)Nc3ccc(OC)cc3)c2)cc1 [C.12] | 95 ± 18 | 90 ± 6 | 94 ± 5 | 90 ± 2 | – | 89 ± 2 |
| 50% | 45 ± 11 | 145 ± 8 | 82 to 85 | < 4.00 | COc1ccc(CCCc2cccc(NC(=O)Nc3ccccc3OC)c2)cc1 [C.14] | 99 ± 10 | 91 ± 6 | 110 ± 7 | 86 ± 3 | – | 92 ± 1 |

| Structure (SMILES) | inhibition rate of PD-L1 (PD-L1) | total PD-L1 (%) expression (PD-L1; 20 μM) [%] | total PD-L1 (%) expression (PD-L1; 100 μM) [%] | melting point [°C] | pIC50 (Jurkat T-cells; 48 h) | THP-1 cell proliferation in co-culture ([1]; 1:5 HT-29/THP-1, 24 h) | THP-1 cell proliferation in co-culture ([1]; 1:5 HT-29/THP-1, 48 h) | THP-1 cell proliferation in co-culture ([1]; 2:1 HT-29/THP-1, 24 h) | THP-1 cell proliferation in co-culture ([1]; 2:1 HT-29/THP-1, 48 h) | pIC50 (Jurkat T-cells) | % CD80 expression in membrane of THP-1 (CD80) [%] |
| --- | --- | --- | --- | --- | --- | --- | --- | --- | --- | --- | --- |
| COc1ccc(CCCc2cccc(NC(=O)Oc3ccccc3)c2)cc1 [C.1] | 30% | 70 ± 16 | 91 ± 7 | 89 to 91 | – | 104 ± 8 | 97 ± 8 | 124 ± 6 | 113 ± 7 | < 4.00 | 96 ± 1 |
